Test results: patent US20260285850A1, “SUBSTITUTED OXAZOLIDINONES AND IMIDAZOLINONES AS HERBICIDES” (FMC CORPORATION, priority 2023, published 2026)

Tests used:
Assay type in all cases: in vivo
[1] = test system: blackgrass (Alopecurus myosuroides); assay: Test A postemergence application, visual injury rating 0-100
How it was run: (§1)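 Scale 0–100 (no effect to complete control), visual, versus untreated controls, read 10 days after application. Application: preemergence directed spray onto seeded loam–sand soil, or postemergence to young plants; formulation in non-phytotoxic solvent with surfactant.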

[2] = test system: palmer (palmer amaranth, palmer pigweed, Amaranthus palmeri); assay: as above
How it was run: as §1

corn (Zea mays) [3] = assay: as above
How it was run: as §1

soybean (Glycine max) [4] = assay: as above
How it was run: as §1

[5] = test system: horseweed (Erigeron canadensis); assay: as above
How it was run: as §1

kochia (Bassia scoparia) [6] = assay: as above
How it was run: as §1

[7] = test system: green foxtail (Setaria viridis); assay: as above
How it was run: as §1

[8] = test system: galium (catchweed bedstraw, Galium aparine); assay: as above; conditions: Postemergence, 16 g ai/ha, greenhouse 10 days; 0 no effect, 100 complete control
How it was run: as §1

[9] = test system: barnyardgrass (Echinochloa crus-galli); assay: as above
How it was run: as §1

[10] = test system: wheat (Triticum aestivum); assay: as above
How it was run: as §1

[11] = test system: oat, wild (wild oat, Avena fatua); assay: as above
How it was run: as §1

[12] = test system: ryegrass, Italian (italian ryegrass, Lolium multiflorum); assay: as above
How it was run: as §1

[13] = test system: ragweed (common ragweed, Ambrosia artemisiifolia); assay: as above
How it was run: as §1

[14] = test system: sedge, umbrella (small-flower umbrella sedge, Cyperus difformis); assay: Test B flooded paddy test, visual plant response rating 0-100; conditions: 250 g ai/ha, Flood, applied to paddy water, evaluated after 13 days
How it was run: (§2)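 2-leaf plants; flood 3 cm over soil; compound dosed into paddy water; depth kept constant; greenhouse 13 d; visual scoring vs controls. Dash = no result.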

[15] = test system: barnyardgrass (Echinochloa crusgalli); assay: as above; conditions: 250 g ai/ha, Flood, applied to paddy water, evaluated after 13 days
How it was run: as §2

rice (Oryza sativa) = assay: as above; conditions: 250 g ai/ha, Flood, applied to paddy water, evaluated after 13 days
How it was run: as §2

[16] = test system: ducksalad (Heteranthera limosa); assay: as above; conditions: 250 g ai/ha, Flood, applied to paddy water, evaluated after 13 days
How it was run: as §2

[17] = test system: blackgrass (Alopecurus myosuroides); assay: Test A preemergence soil spray, visual injury rating 0-100; conditions: 10 days
How it was run: as §1

[18] = test system: palmer (palmer amaranth, palmer pigweed, Amaranthus palmeri); assay: as above; conditions: 10 days
How it was run: as §1

corn (Zea mays) [19] = assay: as above; conditions: 10 days
How it was run: as §1

soybean (Glycine max) [20] = assay: as above; conditions: 10 days
How it was run: as §1

kochia (Bassia scoparia) [21] = assay: as above; conditions: 10 days
How it was run: as §1

[22] = test system: green foxtail (Setaria viridis); assay: as above; conditions: 10 days
How it was run: as §1

[23] = test system: barnyardgrass (Echinochloa crus-galli); assay: as above; conditions: 10 days
How it was run: as §1

[24] = test system: wheat (Triticum aestivum); assay: as above; conditions: 10 days
How it was run: as §1

[25] = test system: oat, wild (wild oat, Avena fatua); assay: as above; conditions: 10 days
How it was run: as §1

[26] = test system: ryegrass, Italian (italian ryegrass, Lolium multiflorum); assay: as above; conditions: 10 days
How it was run: as §1

[27] = test system: ragweed (common ragweed, Ambrosia artemisiifolia); assay: as above; conditions: 10 days
How it was run: as §1

[28] = 62 g ai/ha, postemergence, 10 days, 0 = no effect, 100 = complete control
[29] = Postemergence, 16 g ai/ha, greenhouse 10 days, 0 no effect, 100 complete control
[30] = 62 g ai/ha, 0 = no effect, 100 = complete control

SMILES: CC1(C(=O)NC2CC=C(C(=O)OCC(F)F)C2)CN(c2cc(Cl)cc(Cl)c2)C(=O)O1 (stereo not drawn) [Compound 154]
- Blackgrass plant response rating (0-100) [1, 28]: 0
- Blackgrass plant response rating (0 to 100 scale) [1, 29]: 0
- Pigweed, Palmer plant response rating (0-100) [2, 28]: 90
- Pigweed, Palmer plant response rating (0 to 100 scale) [2, 29]: 90
- Corn plant response rating (0-100) (corn (Zea mays) [3]; [28]): 100
- Corn plant response rating (0 to 100 scale) (corn (Zea mays) [3]; [29]): 100
- Soybean plant response rating (0-100) (soybean (Glycine max) [4]; [28]): 60
- Soybean plant response rating (0 to 100 scale) (soybean (Glycine max) [4]; [29]): 60
- Horseweed plant response rating (0-100) [5, 28]: 70
- Horseweed plant response rating (0 to 100 scale) [5, 29]: 70
- Kochia plant response rating (0-100) (kochia (Bassia scoparia) [6]; [28]): 90
- Kochia plant response rating (0 to 100 scale) (kochia (Bassia scoparia) [6]; [29]): 90
- Foxtail, Green plant response rating (0-100) [7, 28]: 90
- Foxtail, Green plant response rating (0 to 100 scale) [7, 29]: 80
- Galium plant response rating (0 to 100 scale) [8]: 50
- Barnyardgrass plant response rating (0-100) [9, 28]: 100
- Barnyardgrass plant response rating (0 to 100 scale) [9, 29]: 100
- Wheat plant response rating (0-100) [10, 28]: 90
- Wheat plant response rating (0 to 100 scale) [10, 29]: 70
- Oat, Wild plant response rating (0-100) [11, 28]: 90
- Oat, Wild plant response rating (0 to 100 scale) [11, 29]: 20
- Ryegrass, Italian plant response rating (0-100) [12, 28]: 80
- Ryegrass, Italian plant response rating (0 to 100 scale) [12, 29]: 60
- Ragweed plant response rating (0-100) [13, 28]: 90
- Ragweed plant response rating (0 to 100 scale) [13, 29]: 40
- Plant response rating, Sedge, Umbrella (0 to 100 scale, 0 is no effect and 100 is complete control) [14]: 95
- Plant response rating, Barnyardgrass (0 to 100 scale, 0 is no effect and 100 is complete control) [15]: 98
- Plant response rating, Rice (0 to 100 scale, 0 is no effect and 100 is complete control) (rice (Oryza sativa)): 95
- Plant response rating, Ducksalad (0 to 100 scale, 0 is no effect and 100 is complete control) [16]: 70
- Blackgrass plant response rating ([17]; 16 g ai/ha, 0 to 100 scale): 0
- Blackgrass plant response rating (0-100) [17, 30]: 0
- Pigweed, Palmer plant response rating ([18]; 16 g ai/ha, 0 to 100 scale): 60
- Pigweed, Palmer plant response rating (0-100) [18, 30]: 100
- Corn plant response rating (corn (Zea mays) [19]; 16 g ai/ha, 0 to 100 scale): 20
- Corn plant response rating (0-100) (corn (Zea mays) [19]; [30]): 30
- Soybean plant response rating (soybean (Glycine max) [20]; 16 g ai/ha, 0 to 100 scale): 0
- Soybean plant response rating (0-100) (soybean (Glycine max) [20]; [30]): 50
- Kochia plant response rating (kochia (Bassia scoparia) [21]; 16 g ai/ha, 0 to 100 scale): 20
- Kochia plant response rating (0-100) (kochia (Bassia scoparia) [21]; [30]): 90
- Foxtail, Green plant response rating ([22]; 16 g ai/ha, 0 to 100 scale): 40
- Foxtail, Green plant response rating (0-100) [22, 30]: 90
- Barnyardgrass plant response rating ([23]; 16 g ai/ha, 0 to 100 scale): 30
- Barnyardgrass plant response rating (0-100) [23, 30]: 90
- Wheat plant response rating ([24]; 16 g ai/ha, 0 to 100 scale): 10
- Wheat plant response rating (0-100) [24, 30]: 60
- Oat, Wild plant response rating ([25]; 16 g ai/ha, 0 to 100 scale): 0
- Oat, Wild plant response rating (0-100) [25, 30]: 20
- Ryegrass, Italian plant response rating ([26]; 16 g ai/ha, 0 to 100 scale): 30
- Ryegrass, Italian plant response rating (0-100) [26, 30]: 80
- Ragweed plant response rating ([27]; 16 g ai/ha, 0 to 100 scale): 0
- Ragweed plant response rating (0-100) [27, 30]: 50
